# Read-outs that look alike come from different tables or passages of the source.
# Key:
# [1] = molecular target: T1, 5-HT2A receptors (Homo sapiens, UniProt P28223); assay: in vivo functional studies
# T1 construct: In vivo functional studies have established that MIN-101 is an antagonist; from tissue; host or cells: whole organism in vivo
# [2] = molecular target: T2, sigma2 (Homo sapiens, UniProt Q5BJF2); assay: in vivo functional studies; parameters: In vivo functional studies have established that MIN-101 is an antagonist; from tissue; host or cells: whole organism in vivo
# [3] = tested on: muscarinic receptors; assay: receptor affinity; assay type: binding
# [4] = tested on: cholinergic receptors; assay: receptor affinity; assay type: binding
# [5] = tested on: histaminergic receptors; assay: receptor affinity; assay type: binding
# [6] = tested on: patients with negative symptoms of schizophrenia; conditions: for improvement of negative symptoms compared to placebo: 32 mg and 64 mg daily doses, 244 schizophrenic patients; for effect size, PANSS Negative Subscale score (pentagonal model), change from baseline vs placebo: schizophrenic patients
# [7] = tested on: dopaminergic receptors; assay: receptor affinity; assay type: binding
# [8] = QT interval association of metabolite; assay type: in vivo; conditions: supra-therapeutic levels
# [9] = molecular target: T2, sigma2; assay: receptor affinity; assay type: binding
# [10] = molecular target: 5-hydroxytryptamine-2A (5-HT2A) (Homo sapiens, UniProt P28223); assay: receptor affinity; assay type: binding
# [11] = tested on: α1-adrenergic receptors; assay: receptor affinity; assay type: binding
# T2 sequence (Q5BJF2 whole entry): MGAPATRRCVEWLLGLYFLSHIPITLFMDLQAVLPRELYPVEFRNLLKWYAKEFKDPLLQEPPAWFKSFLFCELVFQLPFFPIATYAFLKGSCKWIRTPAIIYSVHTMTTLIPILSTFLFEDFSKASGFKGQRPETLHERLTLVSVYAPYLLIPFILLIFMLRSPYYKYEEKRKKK
# T1 sequence (P28223 whole entry): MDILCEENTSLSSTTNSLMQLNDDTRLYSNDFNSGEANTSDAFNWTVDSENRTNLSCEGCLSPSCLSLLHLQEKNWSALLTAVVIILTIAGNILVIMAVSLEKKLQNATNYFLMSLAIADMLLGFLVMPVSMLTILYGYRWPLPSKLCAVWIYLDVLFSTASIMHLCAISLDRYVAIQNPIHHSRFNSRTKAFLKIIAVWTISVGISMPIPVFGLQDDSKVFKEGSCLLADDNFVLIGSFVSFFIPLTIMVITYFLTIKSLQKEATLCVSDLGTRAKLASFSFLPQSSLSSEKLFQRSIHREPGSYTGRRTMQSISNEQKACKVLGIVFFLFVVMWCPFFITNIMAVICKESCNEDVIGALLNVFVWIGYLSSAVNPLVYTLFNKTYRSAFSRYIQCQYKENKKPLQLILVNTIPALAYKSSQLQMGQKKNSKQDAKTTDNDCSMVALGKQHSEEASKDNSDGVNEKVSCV
# Sequence of 5-hydroxytryptamine-2A (5-HT2A) (P28223 whole entry, species assumed): as the sequence (P28223 whole entry) above
structure (smiles),measurement,setting,value
"Cl.O.O.O=C(CN1CCC(CN2Cc3ccccc3C2=O)CC1)c1ccc(F)cc1 [MIN-101, 2-{1-[2-(4-Fluorophenyl)-2-oxoethyl]piperidin-4-ylmethyl}-2,3-dihydroisoindol-1-one monohydrochloride dihydrate]",functional activity at 5-HT2A receptors,[1],antagonist
same,functional activity at sigma2 receptors,[2],antagonist
same,affinity for muscarinic receptors,[3],very low or no affinity
same,affinity for cholinergic receptors,[4],very low or no affinity
same,affinity for histaminergic receptors,[5],very low or no affinity
same,improvement of negative symptoms compared to placebo,[6]; 12 weeks,statistically significant benefit
same,"effect size, PANSS Negative Subscale score (pentagonal model), change from baseline vs placebo","[6]; 32 mg daily, 12 weeks, p≤0.023",0.45
same,"effect size, PANSS total score vs placebo","[6]; 32 mg daily, 12 weeks, not significant",0.35
same,"effect size, PANSS three factors negative symptoms subscale vs placebo","[6]; 32 mg daily, 12 weeks, p≤0.006",0.55
same,"effect size, PANSS Negative Subscale score (pentagonal model), change from baseline vs placebo","[6]; 64 mg daily, 12 weeks, p≤0.003",0.57
same,"effect size, PANSS three factors negative symptoms subscale vs placebo","[6]; 64 mg daily, 12 weeks, p≤0.001",0.70
same,"effect size, PANSS total score vs placebo","[6]; 64 mg daily, 12 weeks, p≤0.003",0.59
same,positive symptoms during the trial,[6]; 12-week trial,remained stable
same,effect on negative symptoms measured using the BNSS total score,"[6]; both doses (32 mg and 64 mg daily), 12 weeks",Improvement in negative symptoms
same,"incidence and types of side effects, MIN-101 group vs placebo group","[6]; human, in vivo",did not differ significantly
same,metabolic adverse effects,"[6]; human, in vivo",no metabolic adverse effects
same,prolactin elevation,"[6]; human, in vivo",no prolactin elevation
same,affinity for dopaminergic receptors,[7],very low or no affinity
O=C1c2ccccc2CN1CC1CCN(CC(O)c2ccc(F)cc2)CC1 (stereo not drawn) [BFB-520],effect on QT intervals,[8],prolongation of QT intervals
O=C(CN1CCC(CN2Cc3ccccc3C2=O)CC1)c1ccc(F)cc1 [Compound I],affinity for sigma2,[9],specific affinities
same,functional activity at sigma2 receptors,[2],antagonizes sigma2 activity
same,affinity for 5-HT2A,[10],specific affinities
same,affinity for α1-adrenergic receptors,[11],lower affinity levels
same,improvement of negative symptoms compared to placebo,[6]; 12 weeks,statistically significant improvement

# From patent publication US20190216793A1, “COMPOSITIONS AND METHODS FOR TREATING NEGATIVE SYMPTOMS IN NON-SCHIZOPHRENIC PATIENTS” (Minerva Neurosciences, Inc., priority 2016, published 2019)
